According to patent US11365196B2, “FGFR inhibitor and application thereof” (Betta Pharmaceuticals Co., Ltd., priority 2017, dated 2022):
pIC50: −log10 of the molar value. Like-named read-outs stand apart in the source and are kept apart here.

Legend:
[1] = molecular target: T1, FGFR2 (Homo sapiens (Human), UniProt P21802); assay: Kinase assay Method 1, mobility shift assay; format: biochemical; details: ATP at Km, read-out: IC50(nM) value of compounds FGFR2
[2] = tested on: NCI-H1581 cells; assay: Cell proliferation assay on NCI-H1581 (Table 7); format: cell-based, human
From the text: (§1) Test method: adding the appropriate volume of whole medium and the cells was suspended.

[3] = molecular target: T2, FGFR4 (Homo sapiens (Human), UniProt P22455); assay: Kinase assay Method 1, mobility shift assay; format: biochemical; details: ATP at Km, numeric values, read-out: IC50(nM) value of compounds FGFR4
T2 sequence (P22455 22-802): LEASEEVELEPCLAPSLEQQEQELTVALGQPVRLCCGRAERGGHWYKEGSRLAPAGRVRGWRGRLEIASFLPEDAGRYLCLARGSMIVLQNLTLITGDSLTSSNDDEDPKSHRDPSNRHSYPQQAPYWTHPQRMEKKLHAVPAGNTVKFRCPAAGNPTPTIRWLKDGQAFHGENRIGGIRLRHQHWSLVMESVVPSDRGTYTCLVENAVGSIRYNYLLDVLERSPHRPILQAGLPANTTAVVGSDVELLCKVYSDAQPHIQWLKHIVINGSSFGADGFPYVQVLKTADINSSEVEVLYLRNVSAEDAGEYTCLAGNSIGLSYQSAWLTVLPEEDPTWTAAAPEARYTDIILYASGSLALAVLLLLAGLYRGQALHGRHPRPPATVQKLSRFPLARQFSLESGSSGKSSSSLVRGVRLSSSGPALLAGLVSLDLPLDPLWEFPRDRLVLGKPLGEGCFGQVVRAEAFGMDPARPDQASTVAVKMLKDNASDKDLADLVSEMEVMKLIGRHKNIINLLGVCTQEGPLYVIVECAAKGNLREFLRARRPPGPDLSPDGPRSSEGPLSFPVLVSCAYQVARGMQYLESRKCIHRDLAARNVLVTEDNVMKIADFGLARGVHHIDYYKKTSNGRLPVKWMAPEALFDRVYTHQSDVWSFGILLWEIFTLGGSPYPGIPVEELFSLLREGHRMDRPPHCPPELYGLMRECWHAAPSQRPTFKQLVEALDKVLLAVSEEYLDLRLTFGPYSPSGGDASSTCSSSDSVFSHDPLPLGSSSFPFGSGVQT

[4] = tested on: SNU-16 cells; assay: Cell proliferation assay on SNU-16, CellTiter Glo (Table 8); format: cell-based, human; details: class symbols, read-out: IC50(nM) value of compounds on SNU-16 cells
From the text: as §1

[5] = molecular target: T3, FGFR3 (Homo sapiens (Human), UniProt P22607); assay: Kinase assay Method 1, mobility shift assay; format: biochemical; details: ATP at Km, read-out: IC50(nM) value of compounds FGFR3
T3 sequence (P22607 23-806): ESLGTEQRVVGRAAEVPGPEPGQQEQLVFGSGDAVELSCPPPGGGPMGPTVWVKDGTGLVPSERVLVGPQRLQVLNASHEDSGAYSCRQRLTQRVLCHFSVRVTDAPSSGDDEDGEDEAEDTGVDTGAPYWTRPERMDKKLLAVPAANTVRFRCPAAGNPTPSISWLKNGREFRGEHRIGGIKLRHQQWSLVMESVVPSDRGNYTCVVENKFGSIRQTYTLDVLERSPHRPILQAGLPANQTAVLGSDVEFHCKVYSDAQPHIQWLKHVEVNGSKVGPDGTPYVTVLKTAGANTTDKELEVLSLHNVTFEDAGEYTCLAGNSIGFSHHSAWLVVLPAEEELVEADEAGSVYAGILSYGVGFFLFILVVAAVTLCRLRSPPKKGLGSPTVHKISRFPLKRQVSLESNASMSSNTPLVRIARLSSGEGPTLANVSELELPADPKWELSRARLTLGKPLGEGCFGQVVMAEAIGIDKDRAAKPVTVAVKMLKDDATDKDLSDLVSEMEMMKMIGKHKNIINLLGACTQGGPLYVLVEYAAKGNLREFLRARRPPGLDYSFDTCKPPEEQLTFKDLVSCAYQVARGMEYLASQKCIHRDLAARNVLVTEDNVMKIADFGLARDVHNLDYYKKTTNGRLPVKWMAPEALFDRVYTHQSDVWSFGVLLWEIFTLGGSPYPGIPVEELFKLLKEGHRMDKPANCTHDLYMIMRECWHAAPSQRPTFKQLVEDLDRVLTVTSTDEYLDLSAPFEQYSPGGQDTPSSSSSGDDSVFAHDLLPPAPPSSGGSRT

[6] = tested on: MDA-MB-453 (human breast cancer cell); assay: Cell proliferation assay, CellTiter Glo (Table 9); format: cell-based
Protocol: (§5) Test method: 100 μl of the cell suspension was added to a 96-well plate and placed in a CO2 incubator overnight. Test compounds were dissolved in DMSO and subjected to a 3-fold gradient dilution for a total of 10 concentrations. The test compound or DMSO was transferred to the corresponding cell wells respectively and was incubated for 96 hrs in 5% CO2 at 37° C. 100 μl of CellTiter-Glo reagent was added to the assay plate and incubated for 10 min at room temperature to stabilize the luminescence signal. The IC50 value was calculated by recording the RLU (relative luminescence unit) using Enspire.

[7] = tested on: MFE-296 (human endometrial cancer cells); assay: Cell proliferation assay, CellTiter Glo (Table 9); format: cell-based; details: WIFE-296 [sic]
Protocol: as §5

[8] = tested on: RT4 (human bladder cancer cell); assay: Cell proliferation assay, CellTiter Glo (Table 9); format: cell-based; details: 96 hrs
Protocol: as §5

[9] = tested on: NCI-H716 (human colorectal cancer cell); assay: Cell proliferation assay, CellTiter Glo (Table 9); format: cell-based
Protocol: as §5

[10] = tested on: RT-112 (human bladder cancer cell); assay: Cell proliferation assay, CellTiter Glo (Table 9); format: cell-based
Protocol: as §5

[11] = tested on: SNU-16 (human gastric cancer cell); assay: Cell proliferation assay, CellTiter Glo (Table 9); format: cell-based
Protocol: as §5

[12] = tested on: NCI-H1581 (human non-small cell lung cancer cells); assay: Cell proliferation assay, CellTiter Glo (Table 9); format: cell-based
Protocol: as §5

[13] = tested on: DMS 114 (human lung cancer cell); assay: Cell proliferation assay, CellTiter Glo (Table 9); format: cell-based
Protocol: as §5

[14] = tested on: OPM-2 (human myeloma cell); assay: Cell proliferation assay, CellTiter Glo (Table 9); format: cell-based
Protocol: as §5

[15] = tested on: JHH-7 (human hepatoma cell); assay: Cell proliferation assay, CellTiter Glo (Table 9); format: cell-based
Protocol: as §5

[16] = molecular target: T2, FGFR4; assay: Kinase assay Method 2, isotope-labeled 33P-ATP method; format: biochemical; details: ATP at Km, filter-binding, read-out: IC50(nM) value of compounds, FGFR4
Protocol: (§2) Reagent: basic kinase buffer: 20 mM Hepes (pH 7.5), 10 mM MgCl2, 1 mM EGTA, 0.02% Brij35, 0.02 mg/mL BSA, 0.1 mM Na3VO4, 2 mM DTT, 1% DMSO
(§3) Adding the corresponding coenzyme factor to each kinase reaction
(§4) Reaction process: 1) formulating the substrate in freshly configured reaction buffer • 2) adding the required coenzyme factor to the above substrate solution • 3) adding kinase to the substrate solution and mixing gently • 4) adding the compounds dissolved in 100% DMSO to the above kinase reaction mixture, mixed well and incubating for 20 min at room temperature • 5) adding ^33P-ATP (specific activity 10 μCi/μL) to the reaction mixture to initiate the reaction and incubating for 2 h at room temperature • 6) detection of kinase activity by filter-binding The experiment data is shown in table 6: […]

[17] = molecular target: T1, FGFR2; assay: as above; format: biochemical; details: ATP at Km, filter-binding, read-out: IC50(nM) value of compounds, FGFR2
Protocol: as §2, §3, §4

[18] = molecular target: T3, FGFR3; assay: as above; format: biochemical; details: ATP at Km, filter-binding, read-out: IC50(nM) value of compounds, FGFR3
Protocol: as §2, §3, §4

[19] = tested on: cell lines with abnormal changes in FGFR signaling pathway; assay: cells; details: Homo sapiens, read-out: IC50 value
Protocol: Test method: 100 μl of the cell suspension was added to a 96-well plate and placed in a CO2 incubator overnight. […] The test compound or DMSO was transferred to the corresponding cell wells respectively and was incubated for 96 hrs in 5% CO2 at 37° C. 100 μl of CellTiter-Glo reagent was added to the assay plate and incubated for 10 min at room temperature to stabilize the luminescence signal. The IC50 value was calculated by recording the RLU (relative luminescence unit) using Enspire.

[20] = Homo sapiens, NCI-H1581, read-out: IC50(nM) value of compounds on NCI-H1581 cells
[21] = Homo sapiens, MDA-MB-453, 96 hrs
[22] = Homo sapiens, NCI-H1581, 96 hrs

T1 sequence (P21802 22-821): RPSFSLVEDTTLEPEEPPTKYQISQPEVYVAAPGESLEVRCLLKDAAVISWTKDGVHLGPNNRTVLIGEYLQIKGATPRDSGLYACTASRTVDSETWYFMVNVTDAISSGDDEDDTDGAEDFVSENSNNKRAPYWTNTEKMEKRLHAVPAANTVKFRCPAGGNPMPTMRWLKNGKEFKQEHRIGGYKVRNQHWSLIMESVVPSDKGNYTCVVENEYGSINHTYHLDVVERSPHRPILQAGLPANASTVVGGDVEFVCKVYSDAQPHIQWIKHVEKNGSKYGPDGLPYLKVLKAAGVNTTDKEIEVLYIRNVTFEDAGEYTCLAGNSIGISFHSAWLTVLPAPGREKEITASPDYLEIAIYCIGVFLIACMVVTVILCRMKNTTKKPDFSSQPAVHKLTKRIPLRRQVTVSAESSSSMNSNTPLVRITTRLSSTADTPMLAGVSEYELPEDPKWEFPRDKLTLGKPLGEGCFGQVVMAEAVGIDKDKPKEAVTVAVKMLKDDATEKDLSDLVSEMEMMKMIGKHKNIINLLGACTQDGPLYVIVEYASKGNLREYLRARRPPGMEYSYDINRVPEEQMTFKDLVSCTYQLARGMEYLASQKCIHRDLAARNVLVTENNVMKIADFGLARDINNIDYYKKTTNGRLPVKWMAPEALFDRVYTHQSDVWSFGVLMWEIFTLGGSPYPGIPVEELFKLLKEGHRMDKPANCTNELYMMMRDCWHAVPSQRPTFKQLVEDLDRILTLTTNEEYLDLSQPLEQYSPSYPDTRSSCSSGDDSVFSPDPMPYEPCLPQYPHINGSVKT

Structure (SMILES): COc1cc(OC)c(Cl)c(-c2cc3cnc(Nc4ccc(N5CCN6CCC[C@@H]6C5)cc4)nc3n3cnnc23)c1 [Compound 24, (R)-6-(2-chloro-3,5-dimethoxyphenyl)-N-(4-(hexahydropyrrolo[1,2-a]pyrazin-2(1H)-yl)phenyl)-[1,2,4]triazolo[4′,3′:1,6]pyrido[2,3-d]pyrimidin-2-amine]
- IC50 [1]: 1.8 nM
- IC50 [2, 20]: 1.2 nM
- IC50 [3]: 26 nM
- IC50 ([4]; Homo sapiens, SNU-16, 96 hrs): < 1 nM
- IC50 [5]: 0.8 nM

Structure (SMILES): CCN1CCN(c2ccc(Nc3cc(N(C)C(=O)Nc4c(Cl)c(OC)cc(OC)c4Cl)ncn3)cc2)CC1 [BGJ398, Infigratinib]
- IC50 [6, 21]: 544 nM
- IC50 ([7]; Homo sapiens, MFE-296, 96 hrs): 51.4 nM
- IC50 ([2]; Homo sapiens, NCI-H1581, CellTiter 96 AQueous (144 hrs) or CellTiter Glo (96 hrs), numeric values, read-out: IC50(nM) value of compounds on NCI-H1581 cells): 3.4 nM
- IC50 ([8]; Homo sapiens): 16.9 nM
- IC50 ([9]; Homo sapiens, NCI-H716, 96 hrs): 4.6 nM
- IC50 ([10]; Homo sapiens, RT-112, 96 hrs): 4.4 nM
- IC50 ([11]; Homo sapiens, SNU-16, 96 hrs): 9.5 nM
- IC50 [12, 22]: 18.2 nM
- IC50 ([13]; Homo sapiens, DMS-114, 96 hrs): 33.6 nM
- IC50 ([14]; Homo sapiens, OPM-2, 96 hrs): 18 nM
- IC50 ([15]; Homo sapiens, JHH7, 96 hrs): 54.1 nM

Structure (SMILES): COc1cc(OC)c(Cl)c(-c2cc3cnc(Nc4ccc(N5CCN6CCOC[C@@H]6C5)cc4)nc3n3cnnc23)c1 [Compound 42, (S)-6-(2-chloro-3,5-dimethoxyphenyl)-N-(4-(hexahydropyrazino[2,1-c][1,4]oxazin-8(1H)-yl)phenyl)-[1,2,4]triazolo[4′,3′:1,6]pyrido[2,3-d]pyrimidin-2-amine]
- IC50 [1]: 1.3 nM
- IC50 [2, 20]: 3.2 nM
- IC50 ([4]; Homo sapiens, SNU-16, 96 hrs): < 1 nM
- IC50 [5]: 1.6 nM

Structure (SMILES): CCN1CCN(c2ccc(Nc3ncc4cc(-c5cc(OC)cc(OC)c5Cl)c5nncn5c4n3)cc2)CC1 [Compound 4, 6-(2-chloro-3,5-dimethoxyphenyl)-N-(4-(4-ethylpiperazin-1-yl)phenyl)-[1,2,4]triazolo[4′,3′:1,6]pyrido[2,3-d]pyrimidin-2-amine]
- IC50 [6, 21]: 61.3 nM
- IC50 ([7]; Homo sapiens, MFE-296, 96 hrs): 2.7 nM
- IC50 [2, 20]: 0.4 nM
- IC50 ([8]; Homo sapiens): 1.9 nM
- IC50 ([9]; Homo sapiens, NCI-H716, 96 hrs): 0.5 nM
- IC50 ([10]; Homo sapiens, RT-112, 96 hrs): 1 nM
- IC50 ([11]; Homo sapiens, SNU-16, 96 hrs): 1.1 nM
- IC50 [12, 22]: 1.2 nM
- IC50 [16]: 5.06 nM
- IC50 [17]: 0.16 nM
- IC50 [18]: 1.34 nM
- IC50 [3]: 27 nM
- IC50 ([13]; Homo sapiens, DMS-114, 96 hrs): 7.4 nM
- IC50 ([14]; Homo sapiens, OPM-2, 96 hrs): 4 nM
- pIC50 [19]: 8.57 to 9.30
- IC50 ([15]; Homo sapiens, JHH7, 96 hrs): 6.6 nM

Structure (SMILES): COc1cc(OC)cc(N(CCNC(C)C)c2ccc3ncc(-c4cnn(C)c4)nc3c2)c1 [JNJ42756493]
- IC50 ([6]; 96 hrs): 11 nM
- IC50 ([7]; 96 hrs): 16.7 nM
- IC50 ([2]; CellTiter 96 AQueous (144 hrs) or CellTiter Glo (96 hrs), numeric values, read-out: IC50(nM) value of compounds on NCI-H1581 cells): 0.5 nM
- IC50 [8]: 2.4 nM
- IC50 ([9]; 96 hrs): 0.6 nM
- IC50 ([10]; 96 hrs): 0.8 nM
- IC50 ([11]; 96 hrs): 1.2 nM
- IC50 ([12]; 96 hrs): 1.5 nM
- IC50 ([13]; 96 hrs): 14.8 nM
- IC50 ([14]; 96 hrs): 2.5 nM
- IC50 ([4]; 96 hrs): < 1 nM
- IC50 ([15]; 96 hrs): 3.8 nM

Structure (SMILES): COc1cc(OC)c(Cl)c(-c2cc3cnc(Nc4ccc(N5CCN6CCC[C@@H]6C5)cc4)nc3n3cnnc23)c1Cl [Compound 64, (R)-6-(2,6-dichloro-3,5-dimethoxyphenyl)-N-(4-(hexahydropyrrolo[1,2-a]pyrazin-2(1H)-yl)phenyl)-[1,2,4]triazolo[4′,3′:1,6]pyrido[2,3-d]pyrimidin-2-amine]
- IC50 [1]: 2.7 nM
- IC50 [2, 20]: 0.5 nM
- IC50 [3]: 14 nM
- IC50 ([4]; Homo sapiens, SNU-16, 96 hrs): < 1 nM
- IC50 [5]: 0.6 nM
